Eleven compounds from PubChem BioAssay AID328 (DTP/NCI, 2004) can be followed below.

Each structure is given as a SMILES string. Several values for one entry are separate records, joined by “and”; a condition that tells them apart may be missing. Identical values can stand only once. Inconclusive results and toxic doses are left out.

For this assay, the system named is BDF1 mice, P388 leukemia ip, median survival T/C. As to the kind of experiment: NCI In Vivo Anticancer Drug Screen. Data for tumor model P388 Leukemia (intraperitoneal) in B6D2F1 (BDF1) mice. Particulars: endpoint: median survival time, higher = longer survival. The procedure, abridged:
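Survival ratio, drug arm over vehicle arm, in mice with a transplanted tumour.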

Where [1] appears, read: dose: 6.25 mg/kg/injection, schedule: Q04DX003 (ip), vehicle: saline.
The mark [2] stands for this setting: dose: 12.5 mg/kg/injection, schedule: Q04DX003 (ip), vehicle: saline.
[3] abbreviates: dose: 25.0 mg/kg/injection, schedule: Q04DX003 (ip), vehicle: saline.
Setting [4] is: dose: 50.0 mg/kg/injection, schedule: Q01DX009 (ip), vehicle: saline with Tween-80.

Turning to `Clc1ccc2nc(CI)c(CI)nc2c1`, the T/C (dose: 3.12 mg/kg/injection, schedule: Q01DX009 (ip), vehicle: Klucel (hydroxypropylcellulose) (HPC)) is 100 % of control; the T/C (dose: 6.25 mg/kg/injection, schedule: Q01DX009 (ip), vehicle: Klucel (hydroxypropylcellulose) (HPC)) was 100 % of control and 122 % of control; the T/C under setting [1] was 108 % of control; the T/C (dose: 12.5 mg/kg/injection, schedule: Q01DX009 (ip), vehicle: Klucel (hydroxypropylcellulose) (HPC)) was 88 % of control and 100 % of control; the T/C under setting [2] was 108 % of control; the T/C (dose: 22.0 mg/kg/injection, schedule: Q01DX009 (ip), vehicle: saline with Tween-80) is 122 % of control. Further, the T/C reads like this: (dose: 25.0 mg/kg/injection, schedule: Q01DX009 (ip), vehicle: Klucel (hydroxypropylcellulose) (HPC)) 95 % of control; under setting [3], 104 % of control; (dose: 33.0 mg/kg/injection, schedule: Q01DX009 (ip), vehicle: saline with Tween-80) 113 % of control.

With `CC(C)CCC[C@@H](C)[C@H]1CC[C@H]2[C@@H]3CC=C4C[C@@H](OC(=O)Cc5ccc(N(CCCl)CCCl)cc5)CC[C@]4(C)[C@H]3CC[C@]12C`, the T/C is 87 % of control (dose: 6.25 mg/kg/injection, schedule: Q01DX010 (sc), vehicle: steriod suspending solution); 91 % of control (dose: 12.5 mg/kg/injection, schedule: Q01DX010 (sc), vehicle: steriod suspending solution); 91 % of control (dose: 25.0 mg/kg/injection, schedule: Q01DX010 (sc), vehicle: steriod suspending solution); 104 % of control (dose: 50.0 mg/kg/injection, schedule: Q01DX010 (oral), vehicle: steriod suspending solution); 92 % of control (dose: 50.0 mg/kg/injection, schedule: Q01DX010 (sc), vehicle: steriod suspending solution); 118 % of control (dose: 100.0 mg/kg/injection, schedule: Q01DX010 (oral), vehicle: steriod suspending solution). Besides, the T/C is 111 % of control (dose: 100.0 mg/kg/injection, schedule: Q01DX010 (sc), vehicle: steriod suspending solution); 107 % of control (dose: 200.0 mg/kg/injection, schedule: Q01DX010 (sc), vehicle: steriod suspending solution); 172 % of control (dose: 400.0 mg/kg/injection, schedule: Q01DX010 (oral), vehicle: steriod suspending solution); 100 % of control (dose: 400.0 mg/kg/injection, schedule: Q01DX010 (sc), vehicle: steriod suspending solution); 118 % of control (dose: 800.0 mg/kg/injection, schedule: Q01DX010 (oral), vehicle: steriod suspending solution).

`CC(Oc1cc(Cl)ccc1Cl)C(=O)O` (centres undefined): the T/C by setting is: (dose: 100.0 mg/kg/injection, schedule: Q01DX009 (ip), vehicle: Klucel (hydroxypropylcellulose) (HPC)) 90 % of control; (dose: 100.0 mg/kg/injection, schedule: Q04DX003 (ip), vehicle: Klucel (hydroxypropylcellulose) (HPC)) 100 % of control; (dose: 200.0 mg/kg/injection, schedule: Q01DX009 (ip), vehicle: Klucel (hydroxypropylcellulose) (HPC)) 100 % of control; (dose: 200.0 mg/kg/injection, schedule: Q04DX003 (ip), vehicle: Klucel (hydroxypropylcellulose) (HPC)) 104 % of control; (dose: 400.0 mg/kg/injection, schedule: Q01DX009 (ip), vehicle: Klucel (hydroxypropylcellulose) (HPC)) 113 % of control; (dose: 400.0 mg/kg/injection, schedule: Q04DX003 (ip), vehicle: Klucel (hydroxypropylcellulose) (HPC)) 108 % of control.

Take `COC(=O)C(CSCSC)NC(=O)/C=C/c1ccccc1C` (centres undefined): the T/C runs as follows: under setting [4], 101 % of control; (dose: 100.0 mg/kg/injection, schedule: Q01DX009 (ip), vehicle: saline with Tween-80) 98 % of control; (dose: 100.0 mg/kg/injection, schedule: Q04DX003 (ip), vehicle: saline with Tween-80) 104 % of control; (dose: 200.0 mg/kg/injection, schedule: Q01DX009 (ip), vehicle: saline with Tween-80) 101 % of control; (dose: 200.0 mg/kg/injection, schedule: Q04DX003 (ip), vehicle: saline with Tween-80) 91 % of control; (dose: 400.0 mg/kg/injection, schedule: Q01DX009 (ip), vehicle: saline with Tween-80) 114 % of control. Besides, the T/C (dose: 400.0 mg/kg/injection, schedule: Q04DX003 (ip), vehicle: saline with Tween-80) is 104 % of control.

Consider `COc1c(C)c2c(c(O)c1C/C=C(\C)CCC(=O)O)C(=O)OC2`, for which the T/C is, setting by setting: (dose: 25.0 mg/kg/injection, schedule: Q01DX010 (ip), vehicle: saline) 112 % of control and 100 % of control; (dose: 50.0 mg/kg/injection, schedule: Q01DX010 (ip), vehicle: saline) 104 % of control and 118 % of control; (dose: 100.0 mg/kg/injection, schedule: Q01DX010 (ip), vehicle: saline) 116 % of control and 100 % of control; (dose: 100.0 mg/kg/injection, schedule: Q04DX002 (ip), vehicle: Klucel (hydroxypropylcellulose) (HPC)) 100 % of control; (dose: 200.0 mg/kg/injection, schedule: Q01DX010 (ip), vehicle: saline) 100 % of control and 118 % of control; (dose: 200.0 mg/kg/injection, schedule: Q04DX002 (ip), vehicle: Klucel (hydroxypropylcellulose) (HPC)) 100 % of control. The T/C (dose: 400.0 mg/kg/injection, schedule: Q04DX002 (ip), vehicle: Klucel (hydroxypropylcellulose) (HPC)) is 116 % of control.

With `CNC(=O)Oc1coc(CCl)cc1=O`, the T/C was 95 % of control (dose: 12.0 mg/kg/injection, schedule: Q01DX009 (ip), vehicle: Klucel (hydroxypropylcellulose) (HPC)); 108 % of control (dose: 16.5 mg/kg/injection, schedule: Q01DX009 (ip), vehicle: saline); 86 % of control (dose: 18.0 mg/kg/injection, schedule: Q01DX009 (ip), vehicle: Klucel (hydroxypropylcellulose) (HPC)); 120 % of control (dose: 25.0 mg/kg/injection, schedule: Q01DX009 (ip), vehicle: saline); 100 % of control (dose: 27.0 mg/kg/injection, schedule: Q01DX009 (ip), vehicle: Klucel (hydroxypropylcellulose) (HPC)); 116 % of control (dose: 37.5 mg/kg/injection, schedule: Q01DX009 (ip), vehicle: saline). Further, the T/C (dose: 40.0 mg/kg/injection, schedule: Q01DX009 (ip), vehicle: Klucel (hydroxypropylcellulose) (HPC)) is 118 % of control and the T/C (dose: 60.0 mg/kg/injection, schedule: Q01DX009 (ip), vehicle: Klucel (hydroxypropylcellulose) (HPC)) is 118 % of control.

Turning to `Nc1ccc(S(=O)(=O)N/N=C/c2ccccc2Cl)cc1`, the T/C was 96 % of control (dose: 12.5 mg/kg/injection, schedule: Q01DX009 (ip), vehicle: saline with Tween-80); 96 % of control (dose: 25.0 mg/kg/injection, schedule: Q01DX009 (ip), vehicle: saline with Tween-80); 92 % of control under setting [4].

With `CC(Br)C(=O)NCC(=O)NCC(=O)O` (centres undefined), the T/C runs as follows: (dose: 100.0 mg/kg/injection, schedule: Q01DX009 (ip), vehicle: saline) 108 % of control; (dose: 100.0 mg/kg/injection, schedule: Q04DX003 (ip), vehicle: saline) 108 % of control; (dose: 200.0 mg/kg/injection, schedule: Q01DX009 (ip), vehicle: saline) 91 % of control; (dose: 200.0 mg/kg/injection, schedule: Q04DX003 (ip), vehicle: saline) 91 % of control; (dose: 400.0 mg/kg/injection, schedule: Q04DX003 (ip), vehicle: saline) 87 % of control.

Regarding `CC1(C)OC2C=CC3C(OC(=O)C3(C)Cl)C2O1` (centres undefined), the T/C by setting is: (dose: 50.0 mg/kg/injection, schedule: Q04DX002 (ip), vehicle: saline with Tween-80) 112 % of control and 114 % of control; (dose: 100.0 mg/kg/injection, schedule: Q04DX002 (ip), vehicle: saline with Tween-80) 99 % of control and 103 % of control and 104 % of control; (dose: 200.0 mg/kg/injection, schedule: Q04DX002 (ip), vehicle: saline with Tween-80) 103 % of control and 104 % of control; (dose: 400.0 mg/kg/injection, schedule: Q04DX002 (ip), vehicle: saline with Tween-80) 99 % of control and 101 % of control (2×).

Regarding `O=[N+]([O-])c1ccccn1`, the T/C under setting [1] was 100 % of control, the T/C under setting [2] was 100 % of control and the T/C under setting [3] is 104 % of control.

In the case of `COc1cccc(C)c1NC1=NCCO1`, the T/C (dose: 1.56 mg/kg/injection, schedule: Q04DX003 (ip), vehicle: saline with Tween-80) was 117 % of control.
